Measured values from patent US10708263B2, “Salts and pharmaceutical compositions thereof for the treatment of inflammatory disorders” (Galapagos N.V., priority 2014, dated 2020).
≈ marks a conversion by molar mass, not a printed value. Counter-ions that a name gives are not always drawn.

Experiments:
[1] = Salt stability and hygroscopicity evaluation; type: physicochemical; details: for hygroscopicity of the salt: salt from Protocol 4; for stability of the salt: salt from Protocol 4, XRPD analysis
[2] = Thermodynamic aqueous solubility by HPLC; type: physicochemical; details: salt from Protocol 4
[3] = test system: MMP13 levels in human chondrosarcoma cell line SW1353; experiment: cells; details: SW1353, 48 h, read-out: OSM/IL-1β signaling EC50
Experimental: The cells are seeded in 96 well plates at 15,000 cells/well in a volume of 120 μL DMEM (Invitrogen) containing 10% (v/v) FBS and 1% penicillin/streptomycin (InVitrogen) incubated at 37° C./5% CO2. Cells are preincubated with 15 μL of compound in M199 medium with 2% DMSO 1 hr before triggering with 15 μL OSM and IL-1P to reach 25 ng/mL OSM and 1 ng/mL IL-1β, and MMP13 levels are measured in conditioned medium 48 h after triggering. MMP13 activity is measured using an antibody capture activity assay. For this purpose, 384 well plates (NUNC, 460518, MaxiSorb black) are coated with 35 μL of a 1.5 μg/mL anti-human MMP13 antibody (R&D Systems, MAB511) solution for 24 hrs at 4° C. After washing the wells 2 times with PBS+0.05% Tween, the remaining binding sites are blocked with 100 μL 5% non-fat dry milk (Santa Cruz, sc-2325, Blotto) in PBS for 24 hr at 4° C. […] After incubation for 24 hrs at 37° C. fluorescence of the converted substrate is measured in a Perkin Elmer Wallac EnVision 2102 Multilabel Reader (wavelength excitation: 320 nm, wavelength emission: 405 nm). Percentage inhibition=((fluorescence determined in the presence of vehicle−fluorescence determined for sample with test compound present) divided by (fluorescence determined in the presence of vehicle−fluorescence determined for sample without trigger))*100.

[4] = Solubility study in different solvents; type: physicochemical
Experimental: The supersaturated solution is then filtered and the concentration of product in the filtrate is determined using UV-spectrometry.
In water, the influence of the pH is adjusted to pH 2, pH 7, and pH 9. HCl and NaOH are used to adjust the pH.

[5] = Dog bioavailability study; type: in vivo, beagle dogs
Experimental: The dogs are not fasted before dosing, and have free access to water. Every day of the treatment, a half food ration is provided after the T0 blood sampling, 8 to 17 min before treatment, and the second half ration is given just after dosing or 1 h after treatment for period 2. A 3 days washout period is ensured between treatments.
The capsule composition is described in Table XX below.
The capsules are administered orally with water (5-10 mL), to provide good oesophageal transit. Each animal is checked at least once daily.
Blood is collected from the jugular vein into lithium heparinised tubes at T0 (before food administration) and then at 1 h, 2 h, 4 h, 6 h, 8 h, 10 h, and 24 h post treatment.
Plasma is then obtained from blood by centrifugation (2500 g for 10 min at 4° C.), and stored at −20° C. until analysis.
After vortex mixing and centrifugation at 4° C., the supernatants are diluted with a 0.5 volume of HPLC grade water in a midi-eppendorf 96-well plate. The plate is sealed and shaken to ensure sample homogeneity prior to analysis.
Pharmacokinetic analysis is performed using WinNonlin™ software version 5.3, using concentrations from individual animals. Non-compartmental analysis is applied to determine the PK parameters (Cmax, Tmax, AUC0-last, t1/2, etc. . . . )
Concentrations below the limit of detection are set to zero for descriptive statistics and PK parameter calculations.

[6] = oral capsules, on average and at the 2 capsule strengths, FIG. 10

Cl.O=C(Nc1nc2cccc(-c3ccc(CN4CCS(=O)(=O)CC4)cc3)n2n1)C1CC1 [Compound 1 HCl salt]
hygroscopicity of the salt [1]: non-hygroscopic
stability of the salt [1]: stable
aqueous solubility [2]: 1900 µg/mL

O=C(Nc1nc2cccc(-c3ccc(CN4CCS(=O)(=O)CC4)cc3)n2n1)C1CC1.O=C(O)/C=C\C(=O)O [Compound 1 maleic acid salt]
stability of the salt [1]: stable
solubility ([2]; water): 400 µg/mL

O=C(O)/C=C\C(=O)O [Compound 1 maleic acid salt]
hygroscopicity of the salt [1]: non-hygroscopic

O=C(Nc1nc2cccc(-c3ccc(CN4CCS(=O)(=O)CC4)cc3)n2n1)C1CC1 [Compound 1, cyclopropanecarboxylic acid {5-[4-(1,1-dioxo-thiomorpholin-4-ylmethyl)-phenyl]-[1,2,4]triazolo[1,5-a]pyridin-2-yl}-amide]
EC50 [3]: 2240 nM
solubility ([4]; 0.01M HCl + 2.0% Tweet 80 (so in the source); presumably Tween 80), pH 2, aqueous with cosolvent or surfactant or cyclodextrin, thermodynamic from solid, 0.01M HCl + 2.0% Tweet 80, 20° C., read-out: Solubility): 313 µg/mL
solubility ([4]; aqueous with cosolvent or surfactant or cyclodextrin, thermodynamic from solid, Acetonitrile/water (1/1), 20° C., read-out: Solubility): 1570 µg/mL (≈ 3690 µM)
solubility ([4]; aqueous with cosolvent or surfactant or cyclodextrin, thermodynamic from solid, HP-β-CD 40% pH 2, 20° C., read-out: Solubility): 577 µg/mL (≈ 1360 µM)
solubility ([4]; aqueous with cosolvent or surfactant or cyclodextrin, thermodynamic from solid, HP-β-CD 40% pH 4, 20° C., read-out: Solubility): 520 µg/mL (≈ 1220 µM)
solubility ([4]; aqueous with cosolvent or surfactant or cyclodextrin, thermodynamic from solid, Water/ethanol 1/1, 20° C., read-out: Solubility): 327 µg/mL (≈ 768 µM)
solubility ([4]; organic solvent or mixture, thermodynamic from solid, Acetone, 20° C., read-out: Solubility): 420 µg/mL (≈ 987 µM)
solubility ([4]; organic solvent or mixture, thermodynamic from solid, Acetonitrile, 20° C., read-out: Solubility): 605 µg/mL (≈ 1420 µM)
solubility ([4]; organic solvent or mixture, thermodynamic from solid, Acetonitrile/water (4/1), 20° C., read-out: Solubility): 3110 µg/mL (≈ 7310 µM)
solubility ([4]; organic solvent or mixture, thermodynamic from solid, Dichloromethane, 20° C., read-out: Solubility): 5660 µg/mL (≈ 13300 µM)
solubility ([4]; organic solvent or mixture, thermodynamic from solid, Ethanol, 20° C., read-out: Solubility): 151 µg/mL (≈ 355 µM)
solubility ([4]; organic solvent or mixture, thermodynamic from solid, Methanol, 20° C., read-out: Solubility): 432 µg/mL (≈ 1020 µM)
solubility ([4]; organic solvent or mixture, thermodynamic from solid, PEG400, 20° C., read-out: Solubility): 1530 µg/mL (≈ 3600 µM)
solubility ([4]; organic solvent or mixture, thermodynamic from solid, Propanol, 20° C., read-out: Solubility): 134 µg/mL (≈ 315 µM)
solubility ([4]; organic solvent or mixture, thermodynamic from solid, Propylene glycol, 20° C., read-out: Solubility): 464 µg/mL (≈ 1090 µM)
solubility ([4]; organic solvent or mixture, thermodynamic from solid, Tetrahydrofuran, 20° C., read-out: Solubility): 740 µg/mL (≈ 1740 µM)
solubility ([4]; organic solvent or mixture, thermodynamic from solid, t-butyl methyl ether, 20° C., read-out: Solubility): < 2.39 µg/mL
solubility ([4]; pH 2, simulated gastric fluid, thermodynamic from solid, 0.01M HCl, 20° C., read-out: Solubility): 288 µg/mL (≈ 677 µM)
solubility ([4]; pH adjusted with HCl/NaOH, aqueous buffer, thermodynamic from solid, Water pH 2, 20° C., read-out: Solubility): 291 µg/mL (≈ 684 µM)
solubility ([4]; pH adjusted with HCl/NaOH, aqueous buffer, thermodynamic from solid, Water pH 7, 20° C., read-out: Solubility): 4.32 µg/mL (≈ 10.2 µM)
solubility ([4]; pH adjusted with HCl/NaOH, aqueous buffer, thermodynamic from solid, Water pH 9, 20° C., read-out: Solubility): 4.29 µg/mL (≈ 10.1 µM)
solubility ([4]; thermodynamic from solid, Water (purified), 20° C., read-out: Solubility): 3.84 µg/mL (≈ 9.02 µM)
half-life ([5]; male, beagle, plasma, 10 mg/kg, single oral administration, range over both forms and both capsule strengths): 4.43 to 8.96 h

Cl.O.O.O.O=C(Nc1nc2cccc(-c3ccc(CN4CCS(=O)(=O)CC4)cc3)n2n1)C1CC1 [Compound 1.HCl.3H2O]
solubility ([4]; 0.005M HCl, 20° C.): 3100 µg/mL
in vivo exposure compared with Compound 1 [5, 6]: improved exposure
rate of absorption compared with Compound 1 [5, 6]: more rapidly absorbed
